By EC50 is commonly meant the concentration giving half of the maximal effect. By Ki is commonly meant the dissociation constant of the complex between target and ligand, obtained from inhibition or displacement. By half-life is commonly meant the time in which the quantity being followed falls by half.

Active and inactive are the calls of the source. No cut-off for these calls is given here.

The target of series [1] is T1, Glucagon-like peptide 1 receptor (Rattus norvegicus, UniProt P32301).
T1 sequence (P32301 whole entry): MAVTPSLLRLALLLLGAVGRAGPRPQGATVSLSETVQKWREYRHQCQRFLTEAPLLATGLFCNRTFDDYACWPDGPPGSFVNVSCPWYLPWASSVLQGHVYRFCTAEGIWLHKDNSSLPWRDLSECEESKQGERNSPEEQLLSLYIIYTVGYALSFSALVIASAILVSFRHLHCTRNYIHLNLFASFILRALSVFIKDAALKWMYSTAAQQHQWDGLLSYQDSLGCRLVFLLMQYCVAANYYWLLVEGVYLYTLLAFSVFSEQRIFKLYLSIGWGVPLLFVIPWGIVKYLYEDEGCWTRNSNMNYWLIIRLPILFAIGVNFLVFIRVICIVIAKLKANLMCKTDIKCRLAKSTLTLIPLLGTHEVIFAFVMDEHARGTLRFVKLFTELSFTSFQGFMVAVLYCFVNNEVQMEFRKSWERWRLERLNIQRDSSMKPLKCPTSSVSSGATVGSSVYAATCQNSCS
Briefly: (§1) Agonist activity at rat GLP1 receptor expressed in HEK293 cells assessed as cAMP release. The series is classed as functional, cell-based.

Series [2] concerns the target T1, Glucagon-like peptide 1 receptor. Briefly: (§2) Displacement of [125I]GLP1 from rat GLP1 receptor expressed in HEK293 cells. The series is classed as cell-based. For orientation: Loss of bound radioactivity is the signal in a displacement assay; it reports binding, not function.
The target of series [3] is T2, Glucagon-like peptide 1 receptor (Rattus norvegicus) (UniProt P32301).
T2 sequence (whole entry): T1 sequence (P32301 whole entry)
Briefly: Agonist activity at rat GLP1 receptor expressed in HEK293 cells assessed as luciferase activity upto 10 uM relative to GLP1. It is filed as functional, cell-based.

For series [4], the target named is Glucagon-like peptide 1 receptor (Homo sapiens) (UniProt P43220). Briefly: Activity at human GLP1 receptor expressed in HEK293 cells. It is filed as cell-based.
Series [5] concerns the target T2, Glucagon-like peptide 1 receptor (Rattus norvegicus). Put plainly: Reversal of agonist activity at rat GLP1 receptor expressed in HEK293 cells assessed as luciferase activity at 10 uM in presence of exendin. The series is classed as functional, cell-based.
For series [6] the target is unchanged. Put plainly: Reversal of agonist activity at rat GLP1 receptor expressed in HEK293 cells assessed as luciferase activity at 0.05 uM in presence of exendin. It is filed as functional, cell-based.
Series [7] in a line: Induction of glucose-induced insulin release in Sprague-Dawley rat islets at 10 uM relative to control. The series is classed as functional.
Series [8] has as its system Mus musculus. Put plainly: Suppression of food intake in C57BL/6 mouse at 2 mg, ip after 12 hrs. It is filed as functional.
The subject of series [9] is Mus musculus. Put plainly: Suppression of food intake in ip dosed C57BL/6 mouse after 12 hrs. It is filed as functional.
The subject of series [10] is Mus musculus. Put plainly: Suppression of food intake in po dosed C57BL/6 mouse after 2 hrs. It is filed as functional.
Series [11] is filed under the species Mus musculus. Briefly: Effect on glycemia in C57BL/6-m+/+Leprdb mouse assessed as HbA1c normalization at 2 mg. The series is classed as functional, organism-based.
The test system of series [12] is Mus musculus. Put plainly: Reversal of suppression of food intake in ip dosed C57BL/6 mouse after 12 hrs in presence of exendin. It is filed as functional, organism-based.
Series [13] deals with Mus musculus. Put plainly: Reversal of suppression of food intake in po dosed C57BL/6 mouse after 2 hrs in presence of exendin. It is filed as functional, organism-based.
Series [14] is described as follows: Terminal half life in C57BL/6 mouse at 2 mg, ip. It is filed as ADME, organism-based. The following applies: in vivo.
Series [15] has as its system Mus musculus. Put plainly: Decrease in HbA1c levels in ip dosed C57BL/6-m+/+Leprdb mouse at 8 mg, ip. The series is classed as functional, organism-based.
The subject of series [16] is Mus musculus. Put plainly: Decrease in food intake in ip dosed C57BL/6-m+/+Leprdb mouse. It is filed as functional. Also on record: scale not given: the % may be the effect or the level left.
In series [17] the test system is Mus musculus. Briefly: Decrease in HbA1c levels in C57BL/6-m+/+Leprdb mouse at 1 mg, ip. The series is classed as functional, organism-based.
Series [18] has as its system Mus musculus. Put plainly: Decrease in HbA1c levels in C57BL/6-m+/+Leprdb mouse at 2 mg, ip. The series is classed as functional, organism-based.
For series [19], the species on record is Mus musculus. Put plainly: Effect on glycemia in C57BL/6-m+/+Leprdb mouse assessed as fasting glucose normalization at 1 mg. The series is classed as functional, organism-based.
Series [20] is filed under the species Mus musculus. Briefly: Effect on glycemia in C57BL/6-m+/+Leprdb mouse assessed as fasting glucose normalization at 2 mg. It is filed as functional, organism-based.
For series [21], the species on record is Mus musculus. Put plainly: Effect on glycemia in C57BL/6-m+/+Leprdb mouse assessed as HbA1c normalization at 1 mg. It is filed as functional, organism-based.
For series [22], the species on record is Mus musculus. Briefly: Effect on glucose excursion in C57BL/6-m+/+Leprdb mouse assessed as glucose tolerance normalization at 2 mg. It is filed as functional, organism-based.
Series [23] is filed under the species Mus musculus. Briefly: Decrease in fasting insulin in C57BL/6-m+/+Leprdb mouse at 1 mg. The series is classed as functional, organism-based.
The species named for series [24] is Mus musculus. Put plainly: Decrease in fasting insulin in C57BL/6-m+/+Leprdb mouse at 2 mg. The series is classed as functional, organism-based.
The species entered for series [25] is Mus musculus. Briefly: Decrease in total cholesterol in C57BL/6-m+/+Leprdb mouse at 2 mg. It is filed as functional, organism-based.
The species named for series [26] is Mus musculus. Briefly: Decrease in high density lipoprotein in C57BL/6-m+/+Leprdb mouse at 2 mg. The series is classed as functional, organism-based.
The subject of another series is HEK293. Put plainly: Toxicity in HEK293 cells upto 300 uM by MTT assay. The following applies: human. It is filed as cell-based. For orientation: Tetrazolium assays rely on reduction of a dye to a coloured formazan, in cell work by metabolically active cells.
The species named for series [27] is Mus musculus. Briefly: Toxicity in C57BL/6 mouse treated upto 6 weeks. The series is classed as organism-based. The following applies: in vivo, 1008 h.
The target in series [28] is T2, Glucagon-like peptide 1 receptor (Rattus norvegicus). Put plainly: Agonist activity at rat GLP1 receptor expressed in HEK293 cells assessed as luciferase activity. The series is classed as functional, cell-based.
For series [29] the target is unchanged. Described as §1. It is filed as functional, cell-based.
The target is the same in series [30]. The description is as §2. It is filed as cell-based.
Series [31] can be described thus: Induction of glucose-induced insulin release in Sprague-Dawley rat islets at 100 uM relative to control. The series is classed as functional.

Sequence of Glucagon-like peptide 1 receptor (Homo sapiens) (P43220 whole entry): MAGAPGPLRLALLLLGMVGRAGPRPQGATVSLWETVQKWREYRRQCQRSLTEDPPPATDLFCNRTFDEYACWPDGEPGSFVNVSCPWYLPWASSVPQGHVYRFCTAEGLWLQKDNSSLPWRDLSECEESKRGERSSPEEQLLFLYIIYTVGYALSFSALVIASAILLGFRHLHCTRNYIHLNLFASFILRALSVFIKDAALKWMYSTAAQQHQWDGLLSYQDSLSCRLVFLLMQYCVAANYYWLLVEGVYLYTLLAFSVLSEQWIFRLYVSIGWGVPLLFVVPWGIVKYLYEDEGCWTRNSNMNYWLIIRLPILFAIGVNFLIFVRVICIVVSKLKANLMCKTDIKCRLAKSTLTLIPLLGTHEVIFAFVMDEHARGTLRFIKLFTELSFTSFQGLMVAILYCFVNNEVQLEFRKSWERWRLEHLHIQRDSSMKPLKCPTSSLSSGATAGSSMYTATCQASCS

With `COc1cc(C2C(NC(=O)c3ccc(NC(=O)OC(C)(C)C)cc3)(C(=O)O)C(c3ccc(OC(=O)c4cccs4)c(OC)c3)C2(NC(=O)c2ccc(NC(=O)OC(C)(C)C)cc2)C(=O)O)ccc1OC(=O)c1cccs1` (stereo not drawn), in [1], the EC50 amounted to 2730 nM. The affinity in series [2] corresponds to a Ki of 1470 nM. The outcome (in [3]; in series [5]; in series [6]; in the series listed under Mus musculus [11]; with Mus musculus [12]; with Mus musculus [13]) was Active. Besides, the result with Mus musculus [15], with Mus musculus [17], in the series on Mus musculus [18], in the series filed under Mus musculus [19], in the series filed under Mus musculus [20] and in the series filed under Mus musculus [21] was Active. Moreover, the outcome in the series filed under Mus musculus [22], in the series listed under Mus musculus [23], in the series filed under Mus musculus [24], in the series listed under Mus musculus [25] and in the series filed under Mus musculus [26] was Active. In addition, the outcome in series [4] was inactive. In addition, the “fold change (FC)” value in [7] is 4.5. Also, the Activity is recorded as 54% with Mus musculus [8], 24.9% in the series on Mus musculus [16], “Non-toxic” with HEK293 and “Non-toxic” in the series filed under Mus musculus [27]. Further, the ED50 in the series with Mus musculus [9] turned out to be 1.57 mg; in the series with Mus musculus [10], 0.53 mg. In series [14], this compound showed a half-life of 7.5 h.
For the compound `CCOc1cc(/C=C2\N=C(c3ccc(NC(C)=O)cc3)OC2=O)ccc1OC(=O)c1cccs1`, the outcome in series [28], in [29] and in [30] was Active.
Consider `COc1cc(C2C(NC(=O)c3ccc(NC(=O)C4CCCC4)cc3)(C(=O)O)C(c3ccc(OC(=O)c4cccs4)c(OC)c3)C2(NC(=O)c2ccc(NC(=O)C3CCCC3)cc2)C(=O)O)ccc1OC(=O)c1cccs1` (stereo not drawn), for which the EC50 in [1] came to 1080 nM. This compound also had a Ki in series [2] of 287 nM. Moreover, in [3], the Activity worked out at 37%. For the same compound, in [4], the result was inactive. Also, the result in series [5] and in [6] was Active. The “fold change (FC)” value in series [31] is given as 2.6.

Values taken from ChEMBL document CHEMBL1156434, “A nonpeptidic agonist of glucagon-like peptide 1 receptors with efficacy in diabetic db/db mice” (Proc Natl Acad Sci U S A, 2007).
